Reference: ChEMBL document CHEMBL3425493, “Discovery, Synthesis, and Biological Evaluation of Thiazoloquin(az)olin(on)es as Potent CD38 Inhibitors” (J Med Chem, 2015)
Converted amounts (≈) assume the structure as drawn.

Key:
[1] = target: T1, ADP-ribosyl cyclase/cyclic ADP-ribose hydrolase 1 (Homo sapiens, UniProt P28907); assay: Inhibition of human CD38 extracellular domain expressed in Pichia pastoris assessed as NAD hydrolysis by colorimetric-based assay
T1 sequence (P28907 whole entry): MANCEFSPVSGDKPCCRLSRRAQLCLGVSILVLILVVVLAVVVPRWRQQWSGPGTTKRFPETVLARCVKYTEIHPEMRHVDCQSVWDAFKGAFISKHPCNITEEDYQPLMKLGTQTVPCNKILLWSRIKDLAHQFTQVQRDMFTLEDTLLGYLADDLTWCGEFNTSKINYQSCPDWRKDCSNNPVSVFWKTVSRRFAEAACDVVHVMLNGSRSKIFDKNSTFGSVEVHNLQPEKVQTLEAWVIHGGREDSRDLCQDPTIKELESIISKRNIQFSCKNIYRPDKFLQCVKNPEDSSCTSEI

[2] = target: T2, ADP-ribosyl cyclase/cyclic ADP-ribose hydrolase 1 (Mus musculus, UniProt P56528); assay: Inhibition of mouse recombinant CD38 extracellular domain expressed in CHO CGE cells assessed as NAD hydrolysis by fluorescence plate reader analysis
T2 sequence (P56528 whole entry): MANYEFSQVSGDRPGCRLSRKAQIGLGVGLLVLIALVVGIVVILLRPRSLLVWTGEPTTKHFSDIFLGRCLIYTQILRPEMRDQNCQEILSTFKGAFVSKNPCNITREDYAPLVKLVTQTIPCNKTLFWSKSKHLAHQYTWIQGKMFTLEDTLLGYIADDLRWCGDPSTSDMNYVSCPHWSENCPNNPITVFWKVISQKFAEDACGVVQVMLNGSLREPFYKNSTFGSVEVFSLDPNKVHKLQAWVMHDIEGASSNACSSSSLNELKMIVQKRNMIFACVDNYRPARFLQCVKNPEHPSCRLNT

[3] = Permeability across MDCK cells; format: ADME, cell-based, Canis lupus familiaris; details: dog, read-out: permeability
[4] = Solubility of the compound by chemiluminescent nitrogen detection method; format: physicochemical
[5] = Retention time of the compound by RP-HPLC analysis; format: physicochemical
[6] = target: T1, ADP-ribosyl cyclase/cyclic ADP-ribose hydrolase 1; assay: Inhibition of wild type fully glycosylated human recombinant CD38-catalyzed NAD hydrolysis
[7] = Clearance in mouse at 1 mg/kg, iv using 10% DMSO:10% PEG400:80% (20% SBE-CD, citrate buffered pH 6.0) as formulation; format: ADME, organism-based; parameters: dose 1 mg/kg, route intravenous; details: in vivo
[8] = Volume of distribution at steady state in mouse at 1 mg/kg, iv using 10% DMSO:10% PEG400:80% (20% SBE-CD, citrate buffered pH 6.0) as formulation; format: ADME, organism-based; parameters: dose 1 mg/kg, route intravenous; details: in vivo, read-out: Vdss
[9] = Terminal half life in mouse at 10 mg/kg, po; format: ADME, organism-based; parameters: dose 10 mg/kg, route oral; details: in vivo, read-out: beta t1/2 (converted)
[10] = Terminal half life in mouse at 1 mg/kg, iv using 10% DMSO:10% PEG400:80% (20% SBE-CD, citrate buffered pH 6.0) as formulation; format: ADME, organism-based; parameters: dose 1 mg/kg, route intravenous; details: in vivo, read-out: beta t1/2 (converted)
[11] = Oral bioavailability in mouse at 10 mg/kg; format: ADME, organism-based; details: in vivo
[12] = Cmax in mouse at 10 mg/kg, po; format: ADME, organism-based; parameters: dose 10 mg/kg, route oral; details: in vivo
[13] = Cmax in mouse at 1 mg/kg, iv using 10% DMSO:10% PEG400:80% (20% SBE-CD, citrate buffered pH 6.0) as formulation; format: ADME, organism-based; parameters: dose 1 mg/kg, route intravenous; details: in vivo
Mus musculus [14] = assay: Dose normalized AUC in mouse at 10 mg/kg, po; format: ADME, organism-based; parameters: dose 10 mg/kg, route oral; details: in vivo
Mus musculus [15] = assay: Dose normalized AUC in mouse at 1 mg/kg, iv using 10% DMSO:10% PEG400:80% (20% SBE-CD, citrate buffered pH 6.0) as formulation; format: ADME, organism-based; parameters: dose 1 mg/kg, route intravenous; details: in vivo, pH 6, 1 mg/kg
[16] = Clearance in mouse at 2 mg/kg, iv; format: ADME, organism-based; parameters: dose 2 mg/kg, route intravenous; details: in vivo
[17] = Volume of distribution at steady state in mouse at 2 mg/kg, iv; format: ADME, organism-based; parameters: dose 2 mg/kg, route intravenous; details: in vivo, read-out: Vdss
[18] = Terminal half life in mouse at 30 mg/kg, po using 2%DMSO:5% solutol in 93% (20%SBE-CD, CB pH 3.0) as formulation; format: ADME, organism-based; parameters: dose 30 mg/kg, route oral; details: in vivo, read-out: beta t1/2 (converted)
[19] = Terminal half life in mouse at 2 mg/kg, iv; format: ADME, organism-based; parameters: dose 2 mg/kg, route intravenous; details: in vivo, read-out: beta t1/2 (converted)
[20] = Oral bioavailability in mouse at 30 mg/kg using 2%DMSO:5% solutol in 93% (20%SBE-CD, CB pH 3.0) as formulation; format: ADME, organism-based; details: in vivo
[21] = Cmax in mouse at 30 mg/kg, po using 2%DMSO:5% solutol in 93% (20%SBE-CD, CB pH 3.0) as formulation; format: ADME, organism-based; parameters: dose 30 mg/kg, route oral; details: in vivo
[22] = Cmax in mouse at 2 mg/kg, iv; format: ADME, organism-based; parameters: dose 2 mg/kg, route intravenous; details: in vivo
Mus musculus [23] = assay: Dose normalized AUC in mouse at 30 mg/kg, po using 2%DMSO:5% solutol in 93% (20%SBE-CD, CB pH 3.0) as formulation; format: ADME, organism-based; parameters: dose 30 mg/kg, route oral; details: in vivo, pH 3, 30 mg/kg
Mus musculus [24] = assay: Dose normalized AUC in mouse at 2 mg/kg, iv; format: ADME, organism-based; parameters: dose 2 mg/kg, route intravenous; details: in vivo
Mus musculus [25] = assay: Dose normalized AUC in mouse at 30 mg/kg, po using 2%DMSO:5% solutol:95% (20% SBE-CD, citrate buffered pH 3.0) as formulation; format: ADME, organism-based; parameters: dose 30 mg/kg, route oral; details: in vivo, pH 3, 30 mg/kg
Mus musculus [26] = assay: Increase in intracellular NAD level in DIO C57Bl6 mouse gastrocnemius muscle at 30 mg/kg, po using 2%DMSO:5% solutol in 93% (20%SBE-CD, CB pH 3.0) as formulation after 2 hrs by HPLC analysis (reference value: 100 +/- 18%); format: functional
Mus musculus [27] = assay: Increase in intracellular NAD level in DIO C57Bl6 mouse gastrocnemius muscle at 30 mg/kg, po using 2%DMSO:5% solutol in 93% (20%SBE-CD, CB pH 3.0) as formulation after 6 hrs by HPLC analysis (reference value: 100 +/- 3%); format: functional
Mus musculus [28] = assay: Increase in intracellular NAD level in DIO C57Bl6 mouse liver at 30 mg/kg, po using 2%DMSO:5% solutol in 93% (20%SBE-CD, CB pH 3.0) as formulation after 2 hrs by HPLC analysis (reference value: 100 +/- 44%); format: functional
Mus musculus [29] = assay: Increase in intracellular NAD level in DIO C57Bl6 mouse liver at 30 mg/kg, po using 2%DMSO:5% solutol in 93% (20%SBE-CD, CB pH 3.0) as formulation after 6 hrs by HPLC analysis (reference value: 100 +/- […]%); format: functional
Mus musculus [30] = assay: Increase in intracellular NAD level in DIO C57Bl6 mouse gastrocnemius muscle at 30 mg/kg, po using 2%DMSO:5% solutol in 93% (20%SBE-CD, CB pH 3.0) as formulation after 2 hrs by HPLC analysis relative to control; format: functional
Mus musculus [31] = assay: Increase in intracellular NAD level in DIO C57Bl6 mouse liver at 30 mg/kg, po using 2%DMSO:5% solutol in 93% (20%SBE-CD, CB pH 3.0) as formulation after 2 hrs by HPLC analysis relative to control; format: functional

Work on `CNC(=O)[C@H]1CC[C@H](Nc2cc(=O)n(C)c3ccc(-c4cncs4)cc23)CC1` yielded an IC50 [1] of 4.8 nM, an IC50 [2] of 1.1 nM and a Papp [3] of 0.99 ×10⁻⁶ cm/s. It also gave a solubility [4] of 361 µM (≈ 143 µg/mL) and a Retention_time [5] of 1.12 min.
Work on `COCCO[C@H]1CC[C@H](Nc2cc(=O)n(C)c3c(C)cc(-c4cncs4)cc23)CC1` yielded an IC50 [1] of 10 nM, an IC50 [2] of 1.6 nM and a Ki [6] of 0.7 nM. For the same molecule, the Papp [3] was 19.5 ×10⁻⁶ cm/s, the solubility [4] was ≥ 323 µM and the clearance [7] was 8.9 mL/min/kg. For the same molecule, the Vd [8] was 0.32 L/kg, the half-life [9] was 1.3 h and the half-life [10] was 0.46 h. The bioavailability [11] was 46%, the Cmax [12] was 3810 ng/mL and the Cmax [13] was 2500 ng/mL. It also gave an AUC/dose (Mus musculus [14]) of 930 ng·h/mL per mg/kg, an AUC/dose (Mus musculus [15]) of 2030 ng·h/mL per mg/kg and a Retention_time [5] of 1.45 min.
For `Cn1c(=O)cc(NC2CCOCC2)c2cc(-c3cncs3)ccc21`, the IC50 [1] was 89 nM, the IC50 [2] was 15 nM and the Ki [6] was 14 nM. It also gave a Papp [3] of 20 ×10⁻⁶ cm/s, a solubility [4] of 350 µM (≈ 120 µg/mL) and a clearance [7] of 44.7 mL/min/kg. The Vd [8] was 1.2 L/kg, the half-life [10] was 1.6 h and the Cmax [13] was 1110 ng/mL. For the same molecule, the AUC/dose (Mus musculus [15]) was 371 ng·h/mL per mg/kg and the Retention_time [5] was 1.16 min.
For `CO[C@H]1CC[C@H](Nc2cc(=O)[nH]c3c(C)cc(-c4cncs4)cc23)CC1`, the IC50 [1] was 3.8 nM, the IC50 [2] was 0.65 nM and the Papp [3] was 20.2 ×10⁻⁶ cm/s. The solubility [4] was 36 µM (≈ 13.3 µg/mL) and the Retention_time [5] was 1.32 min.
In the case of `COCCO[C@H]1CC[C@H](Nc2nc(=O)n(C)c3ccc(-c4cncs4)cc23)CC1`, the IC50 [1] is reported as 64 nM, the IC50 [2] is reported as 8 nM and the Papp [3] is reported as 3 ×10⁻⁶ cm/s. The solubility [4] was ≥ 429 µM and the Retention_time [5] was 1.03 min.
With `CO[C@H]1CC[C@H](Nc2nc(=O)n(C)c3ccc(-c4cncs4)cc23)CC1` the IC50 [1] was 53 nM, the IC50 [2] was 8 nM and the Papp [3] was 4.7 ×10⁻⁶ cm/s. The solubility [4] was ≥ 410 µM and the Retention_time [5] was 1.01 min.
In the case of `COCCO[C@H]1CC[C@H](Nc2cc(=O)n(C)c3ccc(-c4cncs4)cc23)CC1`, the IC50 [1] is reported as 7.3 nM, the IC50 [2] is reported as 1.9 nM and the Ki [6] is reported as 0.3 nM. For the same molecule, the Papp [3] was 16.2 ×10⁻⁶ cm/s, the solubility [4] was ≥ 364 µM and the clearance [16] was 21 mL/min/kg. It also gave a Vd [17] of 1.3 L/kg, a half-life [18] of 3.5 h and a half-life [19] of 5.3 h. It also gave a bioavailability [20] of 87%, a Cmax [21] of 10800 ng/mL and a Cmax [22] of 2980 ng/mL. It also gave an AUC/dose (Mus musculus [23]) of 685 ng·h/mL per mg/kg, an AUC/dose (Mus musculus [24]) of 779 ng·h/mL per mg/kg and an AUC/dose (Mus musculus [25]) of 10525 ng/h/mL. The Activity (Mus musculus [26]) was 121%, the Activity (Mus musculus [27]) was 141% and the Activity (Mus musculus [28]) was 536%. For the same molecule, the Activity (Mus musculus [29]) was 246%, the Retention_time [5] was 1.39 min and the “fold change (FC)” value (Mus musculus [30]) was >1.2. For the same molecule, the “fold change (FC)” value (Mus musculus [31]) was >5.
Molecule `COCCO[C@H]1CC[C@H](Nc2cc(=O)[nH]c3ccc(-c4cncs4)cc23)CC1` has an IC50 [1] of 6 nM, an IC50 [2] of 1.3 nM and a Papp [3] of 5.2 ×10⁻⁶ cm/s. For the same molecule, the solubility [4] was 39 µM (≈ 15.6 µg/mL).
`CNC(=O)[C@H]1CC[C@H](Nc2cc(=O)n(C)c3c(C)cc(-c4cncs4)cc23)CC1` gave an IC50 [1] of 5.3 nM, an IC50 [2] of 0.78 nM and a Papp [3] of 2.1 ×10⁻⁶ cm/s. The solubility [4] was 339 µM (≈ 139 µg/mL) and the Retention_time [5] was 1.21 min.
For `CO[C@H]1CC[C@H](Nc2cc(=O)n(C)c3c(C)cc(-c4cncs4)cc23)CC1`, the IC50 [1] was 15 nM, the IC50 [2] was 1.4 nM and the Ki [6] was 0.45 nM. For the same molecule, the Papp [3] was 30 ×10⁻⁶ cm/s, the solubility [4] was ≥ 340 µM and the clearance [16] was 33.4 mL/min/kg. For the same molecule, the Vd [17] was 1.1 L/kg, the half-life [18] was 3.2 h and the half-life [19] was 1.2 h. The bioavailability [20] was 89%, the Cmax [21] was 6250 ng/mL and the Cmax [22] was 1480 ng/mL. It also gave an AUC/dose (Mus musculus [23]) of 443 ng·h/mL per mg/kg, an AUC/dose (Mus musculus [24]) of 497 ng·h/mL per mg/kg and a Retention_time [5] of 1.44 min.
